Where a name gives a salt, the structure may show the parent alone.

IC50 data for twelve compounds are collected here from US8853226B2, “Tricyclic compounds as modulators of TNF-α synthesis and as PDE4 inhibitors” (High Point Pharmaceuticals, LLC, priority 2008, dated 2014).

In one experiment the target is PDE4B2 (Homo sapiens (Human), UniProt Q07343). The experiment in a line: PDE4 Inhibition Assay (TR-FRET IMAP, FAM-cAMP substrate). Type of experiment: biochemical. Conditions: 100 nM cAMP, 30° C., 90 minutes. The method, then:
(§1) A TR-FRET-based phosphodiesterase assay kit from “Molecular Devices” was used to test whether these compounds were indeed direct inhibitors of the PDE4 enzyme. Using Roflumilast as a positive control, compounds of the present invention were tested against fluorescein-labeled cAMP substrate. The principle of the assay is based on the binding of a nucleotide monophosphate generated upon cAMP conversion to 5′ AMP by PDE to an “IMAP binding reagent”, which in turn is also ligated to a separate complex carrying terbium (Tb)-donor molecule. Proximity of the fluoreceinated 5′AMP to the Tb donor generates Fluorescence Resonance Energy Transfer. A PDE inhibitor will reduce the conversion of cAMP to 5′AMP, thus reducing monophosphate that can bind to the IMAP binding reagent and reduce the resulting FRET signal.
(§2) The assay buffer was prepared by diluting 5× supplied Tween-based buffer in 1:5 in water to make 1× buffer. Add desired additive to buffer (DTT or MnCl2). In a separate 96-well polypropylene plate, compound dilutions were prepared in assay buffer. Separate microcentrifuge tubes were prepared of PDE4B and PDE4D according to assay template—in assay buffer. The tubes were kept on ice. The enzyme concentration shown on the template were diluted by 1:4. FAM-cAMP substrate solution was prepared according to assay template. 5 μl compound was transferred from polypropylene plate into black 384-well plate. This plate was centrifuged briefly to make sure all 5 μl is on the bottom. Up to 80 μl of prepared PDE4B enzyme solution was transferred into alternate wells on row ‘N’ of 384-well plate starting from cell N1. Up to 80 μl of prepared PDE4D enzyme solution was transferred into alternate wells on row ‘O’ of 384-well plate, starting from cell O2. cAMP substrate solution was transferred into bottom row of separate 96-well plate. 5 μl of enzyme solution from the “reservoir” row (N or O) was transferred to each of the wells containing compounds, per layout map. Next, 10 μl of cAMP substrate was transferred to these wells. The order of substrate-first or enzyme-first can be switched depending on what is optimal. The final cAMP concentration was 100 nM in the reaction. 20 μl of assay buffer was pipetted into 4 separate wells—these are the blanks. The plate was sealed with an aluminum strip and incubated at 30° C. for 90 minutes. A TR-FRET solution was prepared. […]. 25 μl ( 1/800 of 20 ml) of binding beads was added to this and mix by inverting. 60 μl of this mixture was pipetted into 2 of the wells containing the “blank” assay buffer. Next, 49.7 μl ( 1/400 of remaining volume) of Tb donor solution was added to the remaining TR-FRET solution and mixed by inverting. 60 μl of this solution was pipetted into remaining 2 “blank” assay buffer-containing wells. The TR-FRET solution was poured into a pipette boat and a multichannel pipette was used to drop 60 μl of solution into all assay wells. The wells were covered with a foil strip and incubated for at least 3 hours or overnight protected from light (e.g. in a drawer) at room temperature. The plate was read on the Envision Reader: Emission 1: 520/Emission 2: 486/Exc: 340. Mirror: Umbelliferone (UV).
(In general: TR-FRET usually uses a lanthanide donor and a delayed reading to cut background.)

The target of the next experiment is PDE4D (Homo sapiens (Human), UniProt Q08499). The description is as above. The settings on record: 100 nM cAMP, 30° C., 90 minutes. Type of experiment: biochemical. The method, then:
as §1, §2

PDE4D, sequence (Q08499 whole entry, species assumed): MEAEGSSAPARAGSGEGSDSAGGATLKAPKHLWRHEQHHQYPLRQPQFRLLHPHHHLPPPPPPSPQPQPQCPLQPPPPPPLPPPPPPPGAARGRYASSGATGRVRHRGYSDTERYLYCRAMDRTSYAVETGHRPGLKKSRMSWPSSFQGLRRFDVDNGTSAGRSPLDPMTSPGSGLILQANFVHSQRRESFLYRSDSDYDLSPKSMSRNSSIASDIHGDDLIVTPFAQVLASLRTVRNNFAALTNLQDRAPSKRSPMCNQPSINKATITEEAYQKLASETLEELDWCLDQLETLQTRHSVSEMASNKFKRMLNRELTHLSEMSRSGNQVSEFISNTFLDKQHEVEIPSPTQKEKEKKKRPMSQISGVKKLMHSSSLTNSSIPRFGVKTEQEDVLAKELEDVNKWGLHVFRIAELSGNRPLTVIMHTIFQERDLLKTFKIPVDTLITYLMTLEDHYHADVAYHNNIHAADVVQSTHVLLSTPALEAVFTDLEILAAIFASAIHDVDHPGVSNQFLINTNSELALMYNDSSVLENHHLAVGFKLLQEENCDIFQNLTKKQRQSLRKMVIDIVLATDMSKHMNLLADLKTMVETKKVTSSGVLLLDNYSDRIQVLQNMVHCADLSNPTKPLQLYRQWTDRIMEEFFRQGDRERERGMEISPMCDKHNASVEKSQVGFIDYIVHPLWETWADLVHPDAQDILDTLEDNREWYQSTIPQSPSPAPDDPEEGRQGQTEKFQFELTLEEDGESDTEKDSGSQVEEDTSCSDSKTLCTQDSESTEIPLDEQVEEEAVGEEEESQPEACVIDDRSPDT
PDE4B2, sequence (Q07343 other isoform, or with tags, fused parts or gaps, species assumed): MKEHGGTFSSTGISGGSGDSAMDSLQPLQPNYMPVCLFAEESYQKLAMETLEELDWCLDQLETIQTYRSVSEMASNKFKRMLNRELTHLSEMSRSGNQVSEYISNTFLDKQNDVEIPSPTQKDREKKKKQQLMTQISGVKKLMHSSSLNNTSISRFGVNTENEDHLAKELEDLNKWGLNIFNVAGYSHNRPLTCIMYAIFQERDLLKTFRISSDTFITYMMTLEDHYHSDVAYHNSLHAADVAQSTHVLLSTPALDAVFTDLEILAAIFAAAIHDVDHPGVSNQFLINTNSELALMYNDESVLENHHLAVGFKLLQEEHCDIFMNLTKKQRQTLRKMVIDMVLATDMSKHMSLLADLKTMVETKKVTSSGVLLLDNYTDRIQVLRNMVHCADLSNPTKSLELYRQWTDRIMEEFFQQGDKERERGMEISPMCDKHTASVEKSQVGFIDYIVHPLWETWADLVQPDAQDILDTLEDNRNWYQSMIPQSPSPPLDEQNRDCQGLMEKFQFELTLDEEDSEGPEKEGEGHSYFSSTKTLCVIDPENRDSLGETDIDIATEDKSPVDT

In general, IC50 refers to the concentration at which inhibition is half-maximal. For `CCn1c(=O)c2cnc3c(Cl)cccc3c2n(C2CCCC2)c1=O` [Example 30, 7-Chloro-1-cyclopentyl-3-ethyl-1H-pyrimido[5,4-c]quinoline-2,4-dione], the 50% inhibitory concentration (IC50) against PDE4B2 was found to be 17000 nM; against PDE4D, 25000 nM.

In the case of `CCCc1cccc2c1ncc1c(=O)n(CC)c(=O)n(C3CCCC3)c12` [Example 32, 1-Cyclopentyl-3-ethyl-7-propyl-1H-pyrimido[5,4-c]quinoline-2,4-dione], the IC50 against PDE4B2 and against PDE4D was 25000 nM each time.

Turning to `CCn1c(=O)c2cnc3c(C(C)C)cccc3c2n(C2CCCC2)c1=O` [Example 33, 1-Cyclopentyl-3-ethyl-7-isopropyl-1H-pyrimido[5,4-c]quinoline-2,4-dione], the IC50 was 12400 nM against PDE4B2 and 25000 nM at PDE4D.

As for `COc1cccc2c1ncc1c(=O)n(-c3cc(C)cs3)c(=O)n(C3CCCC3)c12` [Example 51, 1-Cyclopentyl-7-methoxy-3-(4-methyl-thiophen-2-yl)-1H-pyrimido[5,4-c]quinoline-2,4-dione], the results for the IC50 against PDE4B2 and against PDE4D were 126 nM and 616 nM, respectively.

Regarding `COc1cccc2c1ncc1c(=O)n(-c3cccc(C)c3)c(=O)n(C3CCCC3)c12` [Example 54, 1-Cyclopentyl-7-methoxy-3-m-tolyl-1H-pyrimido[5,4-c]quinoline-2,4-dione], the IC50 stood at 78 nM on PDE4B2 and 338 nM at PDE4D.

For `COc1cccc2c1ncc1c(=O)n(-c3ccc4c(c3)OCO4)c(=O)n(C3CCCC3)c12` [Example 84, 3-Benzo[1,3]dioxol-5-yl-1-cyclopentyl-7-methoxy-1H-pyrimido[5,4-c]quinoline-2,4-dione], the half-inhibitory concentration (IC50) at PDE4B2 worked out at 513 nM; against PDE4D, 827 nM.

`COc1cccc2c1ncc1c(=O)n(-c3cccc(Cl)c3)c(=O)n(C3CCN(S(C)(=O)=O)CC3)c12` [Example 92, 3-(3-Chloro-phenyl)-1-(1-methanesulfonyl-piperidin-4-yl)-7-methoxy-1H-pyrimido[5,4-c]quinoline-2,4-dione]: the IC50 at PDE4B2 turned out to be 68 nM; on PDE4D it was 151 nM.

As for `COc1cccc2c1ncc1c(=O)n(-c3cccc(Cl)c3)c(=O)n([C@H]3CC[C@H](C(=O)O)CC3)c12` [Example 103, Trans-4-[3-(3-Chloro-phenyl)-7-methoxy-2,4-dioxo-3,4-dihydro-2H-pyrimido[5,4-c]quinolin-1-yl]-cyclohexanecarboxylic acid.hydrochloride], the IC50 at PDE4B2 amounted to 17 nM; on PDE4D it was 55 nM.

With `COc1cccc2c1ncc1c(=O)n(-c3cccc(Cl)c3)c(=O)n([C@@H]3CCN(S(C)(=O)=O)C3)c12` [Example 115, 3-(3-Chloro-phenyl)-1-((R)-1-methanesulfonyl-pyrrolidin-3-yl)-7-methoxy-1H-pyrimido[5,4-c]quinoline-2,4-dione], the IC50 against PDE4B2 was 49 nM; on PDE4D, 163 nM.

Turning to `COc1cccc2c1ncc1c(=O)n(-c3cccc(Cl)c3)c(=O)n([C@H]3CCN(S(C)(=O)=O)C3)c12` [Example 118, 3-(3-Chloro-phenyl)-1-((S)-1-methanesulfonyl-pyrrolidin-3-yl)-7-methoxy-1H-pyrimido[5,4-c]quinoline-2,4-dione], the values for the half-maximal inhibitory concentration (IC50) on PDE4B2 and against PDE4D were 80 nM and 206 nM, respectively.

Consider `CCS(=O)(=O)N1CCC(n2c(=O)n(-c3cccc(Cl)c3)c(=O)c3cnc4c(OC)cccc4c32)CC1` [Example 121, 3-(3-Chloro-phenyl)-1-(1-ethanesulfonyl-piperidin-4-yl)-7-methoxy-1H-pyrimido[5,4-c]quinoline-2,4-dione], for which the 50% inhibitory concentration (IC50) against PDE4B2 was found to be 26 nM; on PDE4D, 59 nM.

As for `COc1cccc2c1ncc1c(=O)n(-c3cccc(Cl)c3)c(=O)n([C@H]3CC[C@H](NS(C)(=O)=O)CC3)c12` [Example 127, N-{4-[(S)-3-(3-Chloro-phenyl)-7-methoxy-2,4-dioxo-3,4-dihydro-2H-pyrimido[5,4-c]quinolin-1-yl]-trans-cyclohexyl}-methanesulfonamide], the figures for the concentration for half-maximal inhibition (IC50) against PDE4B2 and at PDE4D were 25 nM and 73 nM, respectively.
